According to US5175163A, “Triazolyl thioamide derivates” (Egis Gyogyszergyar, priority 1989, dated 1992):
Like-named read-outs stand apart in the source and are kept apart here.

Tests used:
reserpine ptosis on mice = assay: Antagonism of reserpine ptosis on mice; conditions: for ED50: Mus musculus, sc; for Therapeutical index: reserpine ptosis, mice, Table II
Method: Groups consisting of 10 mice each were treated with 6 mg/kg of reserpine, subcutaneously, according to the method of Hoffmeister et. al. [Arzneim. […] The animals with ptosis were counted 60 and 120 minutes after the administration of the compounds to be tested. Evaluation was carried out as given under the above test.

pentetrazole spasm = assay: Inhibition of pentetrazole spasm; format: in vivo; conditions: white mice; for ED50: Mus musculus, po, 1 h, orally, one hour before pentetrazole 125 mg/kg intraperitoneally, tonic extensoric spasms of the hind limbs; for Therapeutical index: pentetrazole spasm, Table III
[1] = test system: nicotine spasm and lethality; assay: Inhibition of nicotine spasm and lethality; format: in vivo; conditions: for ED50: po, 1 h, orally, an hour before nicotine 1.4 mg/kg i.v., spasms and lethality within an hour
Method: The test was carried out according to the method of Stone. [Arch. Int. Pharmacodyn.

Hexobarbital narcosis = Hexobarbital narcosis potentiating effect; conditions: for ED50: Mus musculus, po, 1 h; for Therapeutical index: hexobarbital narcosis, white mice, Table V
Method: Groups consisting of six mice were used for each dose. The test compound was administered orally and one hour after this treatment narcosis was induced by means of a 40 mg/kg i.v. dose of hexobarbital. The control group received carrier instead of the test compound.
The ED50 values thus transformed were calculated.

[2] = Table III (pentetrazole spasm)
[3] = test system: tetrabenazine ptosis on mice; conditions: mouse, in vivo, po
Method: (§1) Groups consisting of 10-20 mice each were treated perorally, with different doses of the compounds to be tested. The control group was treated only with the corresponding carrier. After 30 minutes tetrabenazine [3-isobutyl-9,10-dimethoxy-1,2,3,4,6,7-hexahydrobenzo[a]-quinolizine-2-one] was administered intraperitoneally at a dosage of 50 mg/kg. The number of animals having closed palpebral fissure was determined in each group after 30, 60, 90 and 120 minutes, resp.
(§2) The mean value of ptosis was calculated in each group, and the deviation from that of the control group (i.e. the inhibition) was expressed in percentage.

[4] = test system: tetrabenazine ptosis on mice; assay: Antagonism of tetrabenazine ptosis on mice; conditions: Mus musculus, po
Method: as §1, §2

CN(C)CCC=C1c2ccccc2CCc2ccccc21 [Amitryptiline, reference compound]
LD50 (in vivo): 225 mg/kg
ED50 (reserpine ptosis on mice): 65 mg/kg
Therapeutical index (reserpine ptosis on mice): 3.5

Nc1nc(N2CCOCC2)nn1C(=S)NCCCOc1cccc(CN2CCCCC2)c1 [Example 1, 1-(5-Amino-3-morpholino-1H-1,2,4-triazol-1-yl)-N-{3-[3-(1-piperidinylmethyl)phenoxyl]propyl}carbothioamide]
ED50 (pentetrazole spasm): 295 mg/kg
Therapeutical index (pentetrazole spasm): > 7
Therapeutical index ([1]; nicotine spasm and lethality, Table IV): > 29
ED50 [1]: 68 mg/kg
LD50 (in vivo): > 2000 mg/kg
ED50 (reserpine ptosis on mice): 17 mg/kg
Therapeutical index (reserpine ptosis on mice): > 117
ED50 (Hexobarbital narcosis): 50 mg/kg
Therapeutical index (Hexobarbital narcosis): > 40

CN(C)c1nc(N)n(C(=S)NCCCOc2cccc(CN3CCCCC3)c2)n1 [Example 2, 1-[5-Amino-3-dimethylamino-1H-1,2,4-triazol-1-yl]-N-{3-[3-(1-piperidinylmethyl)phenoxy]propyl}carbothioamide]
ED50 (pentetrazole spasm): 64 mg/kg
Therapeutical index (pentetrazole spasm): > 15
LD50 [2]: > 1000 mg/kg
LD50 (in vivo): > 1000 mg/kg
ED50 (Hexobarbital narcosis): 110 mg/kg
Therapeutical index (Hexobarbital narcosis): > 9

CN1CCN(c2nc(N)n(C(=S)NCCCOc3cccc(CN4CCCCC4)c3)n2)CC1 [Example 3, 1-[5-Amino-3-(4-methylpiperazinyl)-1H-1,2,4-triazol-1-yl]-N-{3-[3-(1-piperidinylmethyl)phenoxy]propyl}carbothioamide]
Therapeutical index [3]: > 90
LD50 (in vivo): > 1000 mg/kg
ED50 [4]: 11 mg/kg

C=CCN(CC=C)c1nc(N)n(C(=S)NCCCOc2cccc(CN3CCCCC3)c2)n1 [Example 5, 1-[5-Amino-3-diallylamino-1H-1,2,4-triazol-1-yl]-N-{3-[3-(1-piperidinylmethyl)phenoxy]propyl}carbothioamide]
LD50 (in vivo): > 1000 mg/kg
ED50 (Hexobarbital narcosis): 200 mg/kg
Therapeutical index (Hexobarbital narcosis): > 5

COc1ccc(CCNC(=S)n2nc(SC)nc2N)cc1OC [Example 6, 1-[5-Amino-3-methylthio-1H-1,2,4-triazol-1-yl]-N-[2-(3,4-dimethoxyphenyl)ethyl]carbothioamide]
LD50 (in vivo): > 2000 mg/kg
ED50 (reserpine ptosis on mice): 20 mg/kg
Therapeutical index (reserpine ptosis on mice): > 100

CCCC(C)(COC(N)=O)COC(N)=O [Meprobamate, reference compound]
LD50 (in vivo): 1100 mg/kg
Therapeutical index (Hexobarbital narcosis): 4.1

OC(CCN1CCCCC1)(c1ccccc1)C1CCCCC1 (stereo not shown) [Trihexyphenidyl, reference compound]
ED50 [1]: 20 mg/kg

CN1C(=O)OC(C)(C)C1=O [Trimethadion, reference compound]
LD50 [2]: 2050 mg/kg
